We go through 12 compounds from ChEMBL document CHEMBL1201862, “PubChem BioAssay data set” (2004).

Among the test systems are A498; UO-31; U-251; OVCAR-3; PC-3; A549; SF-295; DU-145; SN12C; UACC-62; HCC 2998; HL-60; OVCAR-5; K562; COLO 205; CAKI-1; RPMI-8226; HT-29; MCF7.
Common to all, as to test: DTP human tumour cell line panel, 48 h

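All cell lines were grown in 96-well plates and treated with compound for 48 hours. GI50 marks 50% less growth.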 The source made the active and inactive calls. No stated cut-off is given here; in the data, active = GI50 up to about 1.1 µM and inactive = higher. A value given as a limit tells only on which side of the number the result lay.

In the case of `CN1CCc2cc(N)cc3c2C1Cc1ccc(O)c(O)c1-3` (configuration not stated), the GI50 (usually the concentration that inhibits growth by half) in the test with A498 was 57.7 µM (inactive); in the test on UO-31, 42.8 µM (inactive); in the test on U-251, 39.5 µM (inactive); with OVCAR-3 it was 27.4 µM (inactive); with PC-3, 38.2 µM (inactive); with A549 it was 34.2 µM (inactive). The GI50 with SF-295 is 39.8 µM (inactive); in the test with DU-145 it was 56.6 µM (inactive); with SN12C it was 34.5 µM (inactive); with UACC-62, 23.7 µM (inactive); with HCC 2998, 12.6 µM (inactive); in the test on HL-60, 25.8 µM (inactive). Also, the GI50 was 85.1 µM (inactive) in the test on OVCAR-5; 24.9 µM (inactive) with K562; 37.9 µM (inactive) with COLO 205; 37.2 µM (inactive) in the test on CAKI-1; 21.8 µM (inactive) with RPMI-8226; 34.4 µM (inactive) in the test with HT-29.

As to `Nc1ccccc1OCc1cc(=O)c(OCc2ccccc2)co1`, the GI50 was 28.4 µM (inactive) in the test with U-251; 14.7 µM (inactive) in the test on MCF7; 22.9 µM (inactive) in the test on OVCAR-3; 34.4 µM (inactive) in the test with PC-3; 71.1 µM (inactive) with A549; 10.1 µM (inactive) in the test on SF-295. The GI50 was 47.8 µM (inactive) in the test with DU-145; 0.214 µM (active) with SN12C; 0.469 µM (active) in the test on UACC-62; 14.9 µM (inactive) with HL-60; 37.4 µM (inactive) with OVCAR-5; 2.75 µM (inactive) with K562. Moreover, the GI50 in the test on COLO 205 was 12.6 µM (inactive); in the test on CAKI-1, 8.65 µM (inactive); with RPMI-8226 it was 15 µM (inactive); in the test on HT-29, 5.05 µM (inactive).

Consider `Fc1cc(-c2cc(-c3ccc4c(c3)OCO4)n[nH]2)c(Cl)cc1Cl`, for which the GI50 in the test with UO-31 is 2.51 µM (inactive); in the test with U-251 it was 1.91 µM (inactive); with OVCAR-3 it was 2.21 µM (inactive); in the test with PC-3, 3.62 µM (inactive); in the test on A549 it was 2.72 µM (inactive); in the test on SF-295 it was 3.05 µM (inactive). Further, the GI50 in the test on DU-145 was 3.34 µM (inactive); in the test on SN12C, 2.7 µM (inactive); with UACC-62, 1.46 µM (inactive); in the test with HCC 2998, 4.94 µM (inactive); in the test on HL-60 it was > 100 µM (inactive); in the test on OVCAR-5, 3.28 µM (inactive). Besides, the GI50 with K562 was 4.45 µM (inactive); in the test with COLO 205, 3.42 µM (inactive); with CAKI-1, 3.18 µM (inactive); in the test with RPMI-8226, 4.54 µM (inactive); with HT-29, 4 µM (inactive).

As to `COc1ccccc1-c1cc(=O)c2ccccc2n1C1CC1`, the GI50 is 3.85 µM (inactive) in the test with UO-31; 3.54 µM (inactive) with U-251; 1.98 µM (inactive) with MCF7; 1.75 µM (inactive) in the test on OVCAR-3; 4.15 µM (inactive) with PC-3; 2.84 µM (inactive) in the test on A549. Moreover, the GI50 in the test on SF-295 was 2 µM (inactive); with DU-145, 3.5 µM (inactive); in the test on SN12C it was 5.08 µM (inactive); in the test with UACC-62 it was 2.77 µM (inactive); with HL-60 it was 13.7 µM (inactive); in the test with OVCAR-5, 2.72 µM (inactive). Moreover, the GI50 in the test on K562 is 9.68 µM (inactive); in the test with COLO 205, 1.57 µM (inactive); with CAKI-1, 3.49 µM (inactive); in the test with RPMI-8226, 1.71 µM (inactive); with HT-29 it was 0.0782 µM (active).

Regarding `C[N+]1(C)CCC(C#N)(c2ccccc2)CC1`, the GI50 in the test with A498, in the test with UO-31, in the test on U-251, in the test on MCF7, in the test on A549 and in the test on SF-295 was > 100 µM (inactive) throughout. Further, the GI50 with DU-145, in the test with HCC 2998, in the test on HL-60, in the test with OVCAR-5, in the test on K562 and in the test with COLO 205 was > 100 µM (inactive) each time. In addition, the GI50 in the test with CAKI-1, in the test with RPMI-8226 and with HT-29 was > 100 µM (inactive) each time.

For the compound `CC(=O)c1[nH]c(NC(C)C)c(C(=S)Nc2ccccc2)c1N`, the GI50 is 18.9 µM (inactive) with A498; 20.5 µM (inactive) with UO-31; 19.5 µM (inactive) in the test on MCF7; 32.1 µM (inactive) in the test with OVCAR-3; 32.3 µM (inactive) in the test with A549; 38.1 µM (inactive) in the test on SF-295. Further, the GI50 in the test on DU-145 is 26.7 µM (inactive); in the test on SN12C, 27.9 µM (inactive); in the test on UACC-62 it was 23.6 µM (inactive); in the test on HCC 2998, 28.2 µM (inactive); with HL-60, 51.6 µM (inactive); in the test on OVCAR-5, 61.8 µM (inactive). For the same compound, the GI50 was 33.4 µM (inactive) in the test on K562; 27.9 µM (inactive) with COLO 205; 32.9 µM (inactive) in the test with CAKI-1; 0.059 µM (active) in the test with RPMI-8226; 38.8 µM (inactive) with HT-29.

As to `CNc1nc(=O)c(C#N)c(-c2ccc(C)cc2)s1`, the GI50 in the test with UO-31, in the test on U-251, in the test on MCF7, with OVCAR-3, in the test on PC-3 and in the test with A549 was > 100 µM (inactive) in each case. The GI50 is > 100 µM (inactive) in the test on SF-295; > 100 µM (inactive) in the test with DU-145; > 100 µM (inactive) in the test on SN12C; > 100 µM (inactive) in the test with UACC-62; > 100 µM (inactive) in the test on HCC 2998; 53.7 µM (inactive) in the test with HL-60. The GI50 with OVCAR-5 was > 100 µM (inactive); in the test on K562, > 100 µM (inactive); with COLO 205, > 100 µM (inactive); in the test on CAKI-1, 35.6 µM (inactive); with HT-29, > 100 µM (inactive).

Turning to `COC(CC1(OC)OC(=O)C=C1N)OC` (configuration not stated), the GI50 with A498, with UO-31, in the test with U-251, in the test with OVCAR-3, in the test on A549 and in the test with SF-295 was > 100 µM (inactive) each time. For the same compound, the GI50 in the test on SN12C, with UACC-62, in the test on HCC 2998, with HL-60, in the test with OVCAR-5 and in the test with K562 was > 100 µM (inactive) each time. For the same compound, the GI50 in the test with COLO 205, with RPMI-8226 and in the test with HT-29 was > 100 µM (inactive) each time.

Take `C/C(=N/NC(=S)Nc1cccc(Cl)c1)c1cccc(/C(C)=N\NC(=S)Nc2cccc(Cl)c2)n1`: the GI50 in the test on A498 was 4.85 µM (inactive); in the test on UO-31, 1.67 µM (inactive); in the test with U-251 it was 3.13 µM (inactive); with MCF7 it was 1.99 µM (inactive); in the test on OVCAR-3 it was 0.379 µM (active); in the test on PC-3, 3.46 µM (inactive). Besides, the GI50 in the test with A549 was 2.96 µM (inactive); in the test on SF-295, 1.77 µM (inactive); in the test on SN12C, 3.48 µM (inactive); in the test on UACC-62, 2.1 µM (inactive); in the test on HCC 2998, 6.85 µM (inactive); with HL-60 it was 1.22 µM (inactive). The GI50 was 6.43 µM (inactive) in the test with OVCAR-5; 2.62 µM (inactive) with K562; 1.35 µM (inactive) with COLO 205; 2.86 µM (inactive) in the test with CAKI-1; 3.05 µM (inactive) in the test on RPMI-8226; 2.27 µM (inactive) in the test with HT-29.

As for `O=CC12CCCN1CCC2`, the GI50 with UO-31, with U-251, with OVCAR-3, in the test on PC-3, in the test on A549 and in the test on SF-295 was > 100 µM (inactive) each time. Besides, the GI50 in the test with DU-145, with SN12C, in the test with UACC-62, in the test on HCC 2998, in the test with OVCAR-5 and in the test on K562 was > 100 µM (inactive) throughout. The GI50 in the test on COLO 205, in the test on CAKI-1 and in the test on HT-29 was > 100 µM (inactive) each time.

For the compound `CCCCCCC(O)C/C=C/CCCCCC/C(C(=O)OC)=C(/O)C(=O)OCC` (configuration not stated), the GI50 in the test on A498, in the test on UO-31, with U-251, with OVCAR-3, in the test with A549 and with SF-295 was > 100 µM (inactive) in each case. Also, the GI50 in the test on SN12C is > 100 µM (inactive); in the test with UACC-62, > 100 µM (inactive); with HCC 2998, > 100 µM (inactive); in the test with HL-60, 67.1 µM (inactive); with OVCAR-5, > 100 µM (inactive); in the test with K562 it was 97.7 µM (inactive). The GI50 in the test with COLO 205, in the test with CAKI-1, in the test with RPMI-8226 and with HT-29 was > 100 µM (inactive) each time.

`COc1c2c(cc3oc(=O)ccc13)OC(C)(C)C=C2` [XANTHOXYLETIN]: the GI50 with UO-31 is 25.8 µM (inactive); in the test on U-251, 24.9 µM (inactive); in the test on MCF7, 25.4 µM (inactive); in the test with OVCAR-3, 37.9 µM (inactive); in the test with A549, 31.7 µM (inactive); with SF-295, 34.1 µM (inactive). For the same compound, the GI50 in the test with DU-145 is 20.4 µM (inactive); in the test on SN12C it was 29 µM (inactive); with UACC-62, 22.6 µM (inactive); in the test with HCC 2998 it was 18.7 µM (inactive); in the test on HL-60 it was 15.8 µM (inactive); with K562, 35.2 µM (inactive). The GI50 is 25.4 µM (inactive) with COLO 205, 2.26 µM (inactive) in the test on CAKI-1, 24.5 µM (inactive) in the test on RPMI-8226 and 35.8 µM (inactive) in the test on HT-29.
